According to patent publication US20100168102A9, “Amide Derivatives as Kinase Inhibitors” (Devgen NV, priority 2005, published 2010):
Where a name gives a salt, the structure may show the parent alone. Read-outs that look alike come from different tables or passages of the source.

Columns and labels:
[1] = biological target: T1, PKC epsilon (Homo sapiens, UniProt Q02156); assay: Biochemical assay for PKC epsilon (fluorescence polarization, Protein Kinase C Assay Kit, Red); conditions: read-out: IC50 μM PKCε
T1 construct: purchased Invitrogen P2282
T1 sequence (Q02156 1-737): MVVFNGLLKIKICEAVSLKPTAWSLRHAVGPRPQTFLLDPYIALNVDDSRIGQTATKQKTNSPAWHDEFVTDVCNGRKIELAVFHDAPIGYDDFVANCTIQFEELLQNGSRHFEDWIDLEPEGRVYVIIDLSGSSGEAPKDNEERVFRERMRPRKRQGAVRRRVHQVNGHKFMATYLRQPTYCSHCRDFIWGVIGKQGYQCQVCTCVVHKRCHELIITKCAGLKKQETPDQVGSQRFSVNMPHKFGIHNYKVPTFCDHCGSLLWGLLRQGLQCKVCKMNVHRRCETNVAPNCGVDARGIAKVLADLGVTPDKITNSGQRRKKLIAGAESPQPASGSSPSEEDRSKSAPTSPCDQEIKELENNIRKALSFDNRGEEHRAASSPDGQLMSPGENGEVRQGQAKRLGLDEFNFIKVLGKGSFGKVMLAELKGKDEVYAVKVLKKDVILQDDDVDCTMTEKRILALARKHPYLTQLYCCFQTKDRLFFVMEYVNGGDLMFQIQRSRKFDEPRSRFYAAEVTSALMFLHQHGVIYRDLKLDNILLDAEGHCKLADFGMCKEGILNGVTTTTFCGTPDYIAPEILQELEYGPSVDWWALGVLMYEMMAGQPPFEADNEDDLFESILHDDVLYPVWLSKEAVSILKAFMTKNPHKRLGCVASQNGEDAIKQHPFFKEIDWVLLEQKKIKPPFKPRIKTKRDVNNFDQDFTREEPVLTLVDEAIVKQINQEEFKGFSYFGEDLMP
Summary of the method: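 PKC epsilon at 10 ng/ml final was preincubated 30 min at room temperature with compound in HEPES pH 7.4 with DTT and Triton X-100. ATP/protein substrate was then added in buffer with MgCl2 and CaCl2 for 80 min. The reaction was stopped with EDTA, phosphorylation was detected by fluorescence polarization with rhodamine tracer and anti-phosphoserine antibody, and IC50 values came from curve fits.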

[2] = biological target: T2, human ROCKα/ROCKII mix (Homo sapiens, UniProt O75116); assay: Biochemical assay for ROCK (fluorescence polarization, ROCK IMAP Kit)
T2 construct: purchased Upstate Biotechnology 14-451
T2 sequence (O75116 11-552 limits assumed): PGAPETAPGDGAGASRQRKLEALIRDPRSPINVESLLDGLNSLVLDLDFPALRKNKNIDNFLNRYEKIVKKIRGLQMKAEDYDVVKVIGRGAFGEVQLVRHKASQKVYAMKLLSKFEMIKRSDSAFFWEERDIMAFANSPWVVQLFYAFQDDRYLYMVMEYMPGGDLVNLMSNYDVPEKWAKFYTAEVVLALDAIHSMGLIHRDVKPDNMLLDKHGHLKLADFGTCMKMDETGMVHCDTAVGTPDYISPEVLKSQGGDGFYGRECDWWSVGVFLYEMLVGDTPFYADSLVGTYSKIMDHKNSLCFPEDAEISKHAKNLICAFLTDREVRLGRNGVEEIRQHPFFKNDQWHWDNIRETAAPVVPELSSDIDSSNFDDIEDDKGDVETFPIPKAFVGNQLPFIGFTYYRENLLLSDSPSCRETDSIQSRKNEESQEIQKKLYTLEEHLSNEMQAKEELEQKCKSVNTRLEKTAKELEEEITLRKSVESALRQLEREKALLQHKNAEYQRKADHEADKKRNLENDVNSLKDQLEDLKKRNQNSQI

[3] = Table 2, compounds of Formula XIII
[4] = compounds of Formula XIV, Table 3

Row | SMILES | IC50 [1, 3] [µM] | IC50 [2, 3] [µM] | also measured
1 | COc1ccc(C2(C(=O)NCC(N)c3ccc(C(=O)Nc4ccncc4)cc3)CCCC2)cc1 (centres unmarked) [Compound 344, 4-(1-Amino-2-{[1-(4-methoxy-phenyl)-cyclopentanecarbonyl]-amino}-ethyl)-N-pyridin-4-yl-benzamide] | 0.05 to 0.5 | 0.05 to 0.5 | 
2 | NC(CNC(=O)C1(c2ccc(Cl)c(Cl)c2)CC1)c1ccc(C(=O)Nc2ccncc2)cc1 (centres unmarked) [Compound 345, 4-(1-Amino-2-{[1-(3,4-dichloro-phenyl)-cyclopropanecarbonyl]-amino}-ethyl)-N-pyridin-4-yl-benzamide] | 0.05 to 0.5 | 0.05 to 0.5 | 
3 | CC(C)(C(=O)NCC(N)c1ccc(C(=O)Nc2ccncc2)cc1)c1ccsc1 (centres unmarked) [Compound 346, 4-[1-Amino-2-(2-methyl-2-thiophen-3-yl-propionylamino)-ethyl]-N-pyridin-4-yl-benzamide] | 0.05 to 0.5 | 0.05 to 0.5 | 
4 | NC(CNC(=O)C1(c2ccsc2)CC1)c1ccc(C(=O)Nc2ccncc2)cc1 (centres unmarked) [Compound 347, 4-{1-Amino-2-[(1-thiophen-3-yl-cyclopropanecarbonyl)-amino]-ethyl}-N-pyridin-4-yl-benzamide] | 0.05 to 0.5 | 0.05 to 0.5 | 
5 | CC(C)(C(=O)NCC(N)c1ccc(C(=O)Nc2ccncc2)cc1)c1cccs1 (centres unmarked) [Compound 348, 4-[1-Amino-2-(2-methyl-2-thiophen-2-yl-propionylamino)-ethyl]-N-pyridin-4-yl-benzamide] | < 0.05 | 0.05 to 0.5 | 
6 | NC(CNC(=O)C1(c2cccs2)CC1)c1ccc(C(=O)Nc2ccncc2)cc1 (centres unmarked) [Compound 349, 4-{1-Amino-2-[(1-thiophen-2-yl-cyclopropanecarbonyl)-amino]-ethyl}-N-pyridin-4-yl-benzamide] | 0.05 to 0.5 | 0.05 to 0.5 | 
7 | COc1ccc2c(c1)CCCC2C(=O)NCC(N)c1ccc(C(=O)Nc2ccncc2)cc1 (centres unmarked) [Compound 355, 6-Methoxy-1,2,3,4-tetrahydro-naphthalene-1-carboxylic acid {2-amino-2-[4-(pyridin-4-ylcarbamoyl)-phenyl]-ethyl}-amide] | 0.05 to 0.5 | 0.05 to 0.5 | 
8 | NC(CC(=O)N[C@H]1CCc2ccccc21)c1ccc(C(=O)Nc2ccncc2)cc1 (stereo partly drawn) [Compound 357, 4-[1-Amino-2-((S)-indan-1-ylcarbamoyl)-ethyl]-N-pyridin-4-yl-benzamide] |  |  | IC50 [1, 4]: 0.5 to 5 µM; IC50 [2, 4]: 0.05 to 0.5 µM
9 | NC(CC(=O)N[C@@H]1CCc2ccccc21)c1ccc(C(=O)Nc2ccncc2)cc1 (stereo partly drawn) [Compound 358, 4-[1-Amino-2-((R)-indan-1-ylcarbamoyl)-ethyl]-N-pyridin-4-yl-benzamide] |  |  | IC50 [1, 4]: 0.05 to 0.5 µM; IC50 [2, 4]: 0.05 to 0.5 µM
10 | N[C@H](CC(=O)N[C@H]1CCCc2ccccc21)c1ccc(C(=O)Nc2ccncc2)cc1 [Compound 372, 4-{(R)-1-Amino-2-[(S)-(1,2,3,4-tetrahydro-naphthalen-1-yl)carbamoyl]-ethyl}-N-pyridin-4-yl-benzamide dihydrochloric acid salt] |  |  | IC50 [1]: 0.5 to 5 µM; IC50 [2]: 0.05 to 0.5 µM
11 | N[C@@H](CC(=O)N[C@@H]1CCCc2ccccc21)c1ccc(C(=O)Nc2ccncc2)cc1 [Compound 374, 4-{(S)-1-Amino-2-[(R)-(1,2,3,4-tetrahydro-naphthalen-1-yl)carbamoyl]-ethyl}-N-pyridin-4-yl-benzamide dihydrochloric acid salt] |  |  | IC50 [1]: 0.5 to 5 µM; IC50 [2]: 0.05 to 0.5 µM
12 | N[C@@H](CC(=O)N[C@H]1CCCc2ccccc21)c1ccc(C(=O)Nc2ccncc2)cc1 [Compound 375, 4{(S)-1-Amino-2-[(S)-(1,2,3,4-tetrahydro-naphthalen-1-yl)carbamoyl]-ethyl}-N-pyridin-4-yl-benzamide dihydrochloric acid salt] |  |  | IC50 [1]: 5 to 50 µM; IC50 [2]: 0.05 to 0.5 µM
13 | NC(CNC(=O)C1(c2ccc(F)c(F)c2)CC1)c1ccc(C(=O)Nc2ccncc2)cc1 (centres unmarked) [Compound 377, 4-(1-Amino-2-{[1-(3,4-difluoro-phenyl)-cyclopropanecarbonyl]-amino}-ethyl)-N-pyridin-4-yl-benzamide] | < 0.05 | 0.05 to 0.5 | 
14 | NC(CNC(=O)C1(c2ccc(F)c(F)c2)CCC1)c1ccc(C(=O)Nc2ccncc2)cc1 (centres unmarked) [Compound 378, 4-(1-Amino-2-{[1-(3,4-difluoro-phenyl)-cyclobutanecarbonyl]-amino}-ethyl)-N-pyridin-4-yl-benzamide] | < 0.05 | 0.05 to 0.5 | 
15 | NC(CNC(=O)C1(c2ccc(F)c(F)c2)CCCC1)c1ccc(C(=O)Nc2ccncc2)cc1 (centres unmarked) [Compound 379, 4-(1-Amino-2-{[1-(3,4-difluoro-phenyl)-cyclopentanecarbonyl]-amino}-ethyl)-N-pyridin-4-yl-benzamide] | < 0.05 | 0.05 to 0.5 | 
16 | CC(C)(C(=O)NCC(N)c1ccc(C(=O)Nc2ccncc2)cc1)c1ccc(Cl)c(Cl)c1 (centres unmarked) [Compound 380, 4-{1-Amino-2-[2-(3,4-dichloro-phenyl)-2-methyl-propionylamino]-ethyl}-N-pyridin-4-yl-benzamide] | < 0.05 | 0.05 to 0.5 | 
17 | NC(CNC(=O)C1(c2ccc(Cl)c(Cl)c2)CCC1)c1ccc(C(=O)Nc2ccncc2)cc1 (centres unmarked) [Compound 381, 4-(1-Amino-2-{[1-(3,4-dichloro-phenyl)-cyclobutanecarbonyl]-amino}-ethyl)-N-pyridin-4-yl-benzamide] | 0.05 to 0.5 | 0.05 to 0.5 | 
18 | CC(C)(C(=O)NCC(N)c1ccc(C(=O)Nc2ccncc2)cc1)c1ccc(F)c(Cl)c1 (centres unmarked) [Compound 382, 4-{1-Amino-2-[2-(3-chloro-4-fluoro-phenyl)-2-methyl-propionylamino]-ethyl}-N-pyridin-4-yl-benzamide] | < 0.05 | 0.05 to 0.5 | 
19 | CC(C)(C(=O)NCC(N)c1ccc(C(=O)Nc2ccncc2)cc1)c1ccc(F)cc1F (centres unmarked) [Compound 384, 4-{1-Amino-2-[2-(2,4-difluoro-phenyl)-2-methyl-propionylamino]-ethyl}-N-pyridin-4-yl-benzamide] | < 0.05 | 0.05 to 0.5 | 
20 | N[C@H](CNC(=O)C1(c2ccc(Cl)cc2)CC1)c1ccc(C(=O)Nc2ccncc2)cc1 [Compound 397, 4-((S)-1-Amino-2-{[1-(4-chloro-phenyl)-cyclopropanecarbonyl]-amino}-ethyl)-N-pyridin-4-yl-benzamide dihydrochloric acid salt] |  |  | IC50 [1]: < 0.05 µM; IC50 [2]: 0.05 to 0.5 µM

Further lines, with some results ahead:

Row | IC50 [1, 3] [µM] | IC50 [2, 3] [µM] | SMILES | also measured
21 | < 0.05 | 0.05 to 0.5 | NC(CNC(=O)C1(c2ccc(F)cc2F)CC1)c1ccc(C(=O)Nc2ccncc2)cc1 (centres unmarked) [Compound 385, 4-(1-Amino-2-{[1-(2,4-difluoro-phenyl)-cyclopropanecarbonyl]-amino}-ethyl)-N-pyridin-4-yl-benzamide] | 
22 | < 0.05 | 0.05 to 0.5 | CC(C)(C(=O)NCC(N)c1ccc(C(=O)Nc2ccncc2)cc1)c1ccc(F)cc1Cl (centres unmarked) [Compound 386, 4-{1-Amino-2-[2-(2-chloro-4-fluoro-phenyl)-2-methyl-propionylamino]-ethyl}-N-pyridin-4-yl-benzamide] | 
23 | < 0.05 | 0.05 to 0.5 | NC(CNC(=O)C1(c2ccc(F)cc2Cl)CC1)c1ccc(C(=O)Nc2ccncc2)cc1 (centres unmarked) [Compound 387, 4-(1-Amino-2-{[1-(2-chloro-4-fluoro-phenyl)-cyclopropanecarbonyl]-amino}-ethyl)-N-pyridin-4-yl-benzamide] | 
24 | < 0.05 | 0.05 to 0.5 | CC(C)(C(=O)NCC(N)c1ccc(C(=O)Nc2ccncc2)cc1)c1ccc(Cl)cc1F (centres unmarked) [Compound 388, 4-{1-Amino-2-[2-(4-chloro-2-fluoro-phenyl)-2-methyl-propionylamino]-ethyl}-N-pyridin-4-yl-benzamide] | 
25 | < 0.05 | 0.05 to 0.5 | NC(CNC(=O)C1(c2ccc(Cl)cc2F)CC1)c1ccc(C(=O)Nc2ccncc2)cc1 (centres unmarked) [Compound 389, 4-(1-Amino-2-{[1-(4-chloro-2-fluoro-phenyl)-cyclopropanecarbonyl]-amino}-ethyl)-N-pyridin-4-yl-benzamide] | 
26 | 0.05 to 0.5 | 0.05 to 0.5 | NC(CNC(=O)C1CCOc2ccccc21)c1ccc(C(=O)Nc2ccncc2)cc1 (centres unmarked) [Compound 390, Chroman-4-carboxylic acid {2-amino-2-[4-(pyridin-4-ylcarbamoyl)-phenyl]-ethyl}-amide] | 
27 | 0.05 to 0.5 | 0.05 to 0.5 | NC(CNC(=O)C1CCSc2ccccc21)c1ccc(C(=O)Nc2ccncc2)cc1 (centres unmarked) [Compound 391, Thiochroman-4-carboxylic acid {2-amino-2-[4-(pyridin-4-ylcarbamoyl)-phenyl]-ethyl}-amide] | 
28 | 0.05 to 0.5 | 0.05 to 0.5 | NC(CNC(=O)C1CCOc2ccc(F)cc21)c1ccc(C(=O)Nc2ccncc2)cc1 (centres unmarked) [Compound 393, 6-Fluoro-chroman-4-carboxylic acid {2-amino-2-[4-(pyridin-4-ylcarbamoyl)-phenyl]-ethyl}-amide] | 
